In the supplement of paper PMC11208160:

Assay: recombinant barcode read abundance after kanamycin selection (control-corrected) (log10(CPM+1)); higher = more efficient recombination; sequences stand for … in AGTGCAGAGAAAATCGGCCAGTTTTCTCTGCCTGCAGTCCGCATGCCGT…ATTTATGCAGCGGACTGCCTTTCTCCCAAAGTGATAAACCGGACAGTATCATGGACCGGTTTTCCCGGTAATCCGTATTTGCAAGGTTGGTTTCACT; site = the 11-nt target
Experimental: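 Same pooled E. coli target screen (IS621 bridge recombinase, kanamycin selection, control-corrected CPM, mean of 2 biological replicates). Here the two core-binding nucleotides of the LTG and RTG of the bridge RNA target-binding loop are mutated. Target and donor CT cores are held constant, and the other 9 guide positions match the target. The target is read from the library oligo sequence. Molecule = full bridge RNA written as DNA: nt 1-80 from the library oligo, rest WT scaffold.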

Sequence	recombinant barcode read abundance (log10)
GGTGCCCGATGGGTTCTAACCTGTTGCCGAG [GGTGCCCCTCG_LTGcore_GA_RTGcore_CT] (site GGTGCCCCTCG) (LTG core: GA, RTG core: CT)	0.0132
ATGCTTTAATGGGTTCTAACCTGTTGCCTTT [ATGCTTTCTAG_LTGcore_AA_RTGcore_AA] (site ATGCTTTCTAG) (LTG core: AA, RTG core: AA)	0.125
GGTGCCCTCTGGGTTCTAACCTGTTGCCGGA [GGTGCCCCTCG_LTGcore_TC_RTGcore_TC] (site GGTGCCCCTCG) (LTG core: TC, RTG core: TC)	0.0162
GAGTCCTCTTGGGTTCTAACCTGTTGCCTTG [GAGTCCTCTAG_LTGcore_CT_RTGcore_CA] (site GAGTCCTCTAG) (LTG core: CT, RTG core: CA)	0.753
GCGCGACCTTGGGTTCTAACCTGTTGCTTGA [GCGCGACCTAA_LTGcore_CT_RTGcore_TC] (site GCGCGACCTAA) (LTG core: CT, RTG core: TC)	0.0329
GAGTCCACTTGGGTTCTAACCTGTTGCGTAC [GAGTCCACTAC_LTGcore_CT_RTGcore_GT] (site GAGTCCACTAC) (LTG core: CT, RTG core: GT)	0.0332
TAGAGGGAATGGGTTCTAACCTGTTGCGGAG [TAGAGGGCTCC_LTGcore_AA_RTGcore_CT] (site TAGAGGGCTCC) (LTG core: AA, RTG core: CT)	0.247
GGACACCCTTGGGTTCTAACCTGTTGCCTTC [GGACACCCTAG_LTGcore_CT_RTGcore_GA] (site GGACACCCTAG) (LTG core: CT, RTG core: GA)	0.732
GGCTCCCCCTGGGTTCTAACCTGTTGCGGGG [GGCTCCCCTCC_LTGcore_CC_RTGcore_CC] (site GGCTCCCCTCC) (LTG core: CC, RTG core: CC)	0.0622
AGTCTTAGATGGGTTCTAACCTGTTGCCAAG [AGTCTTACTTG_LTGcore_GA_RTGcore_CT] (site AGTCTTACTTG) (LTG core: GA, RTG core: CT)	0.23
ACGGGACACTGGGTTCTAACCTGTTGCAGAG [ACGGGACCTCT_LTGcore_AC_RTGcore_CT] (site ACGGGACCTCT) (LTG core: AC, RTG core: CT)	0.0883
GGTGCCCGGTGGGTTCTAACCTGTTGCCGAG [GGTGCCCCTCG_LTGcore_GG_RTGcore_CT] (site GGTGCCCCTCG) (LTG core: GG, RTG core: CT)	0.0774
AAACACACTTGGGTTCTAACCTGTTGCCTGC [AAACACACTAG_LTGcore_CT_RTGcore_GC] (site AAACACACTAG) (LTG core: CT, RTG core: GC)	0.456
GGGAGCCCATGGGTTCTAACCTGTTGCTGAG [GGGAGCCCTCA_LTGcore_CA_RTGcore_CT] (site GGGAGCCCTCA) (LTG core: CA, RTG core: CT)	1.06
GAGGCCTCATGGGTTCTAACCTGTTGCCAAG [GAGGCCTCTTG_LTGcore_CA_RTGcore_CT] (site GAGGCCTCTTG) (LTG core: CA, RTG core: CT)	0.318
AGTCTTAGTTGGGTTCTAACCTGTTGCCAAG [AGTCTTACTTG_LTGcore_GT_RTGcore_CT] (site AGTCTTACTTG) (LTG core: GT, RTG core: CT)	0.0538
GAGTCCTGATGGGTTCTAACCTGTTGCCTTC [GAGTCCTCTAG_LTGcore_GA_RTGcore_GA] (site GAGTCCTCTAG) (LTG core: GA, RTG core: GA)	0.149
GAGTCCTTTTGGGTTCTAACCTGTTGCCTAA [GAGTCCTCTAG_LTGcore_TT_RTGcore_TT] (site GAGTCCTCTAG) (LTG core: TT, RTG core: TT)	0.219
GGGCGTGTGTGGGTTCTAACCTGTTGCCTAG [GGGCGTGCTAG_LTGcore_TG_RTGcore_CT] (site GGGCGTGCTAG) (LTG core: TG, RTG core: CT)	0.228
GCGCGACGTTGGGTTCTAACCTGTTGCTTAC [GCGCGACCTAA_LTGcore_GT_RTGcore_GT] (site GCGCGACCTAA) (LTG core: GT, RTG core: GT)	0.0144
TAGAGGGCTTGGGTTCTAACCTGTTGCGGTA [TAGAGGGCTCC_LTGcore_CT_RTGcore_TA] (site TAGAGGGCTCC) (LTG core: CT, RTG core: TA)	0.144
GGCTCCCCGTGGGTTCTAACCTGTTGCGGAG [GGCTCCCCTCC_LTGcore_CG_RTGcore_CT] (site GGCTCCCCTCC) (LTG core: CG, RTG core: CT)	0.116

Sequence	recombinant barcode read abundance (log10)
GGGAGCCAATGGGTTCTAACCTGTTGCTGTT [GGGAGCCCTCA_LTGcore_AA_RTGcore_AA] (site GGGAGCCCTCA) (LTG core: AA, RTG core: AA)	0.427
GAGTCCACATGGGTTCTAACCTGTTGCGTAG [GAGTCCACTAC_LTGcore_CA_RTGcore_CT] (site GAGTCCACTAC) (LTG core: CA, RTG core: CT)	0.829
AGGCCTCCTTGGGTTCTAACCTGTTGCCTTG [AGGCCTCCTAG_LTGcore_CT_RTGcore_CA] (site AGGCCTCCTAG) (LTG core: CT, RTG core: CA)	0.722
TCGCGACAGTGGGTTCTAACCTGTTGCCGAG [TCGCGACCTCG_LTGcore_AG_RTGcore_CT] (site TCGCGACCTCG) (LTG core: AG, RTG core: CT)	0.161
AGGCGGGCATGGGTTCTAACCTGTTGCGGAG [AGGCGGGCTCC_LTGcore_CA_RTGcore_CT] (site AGGCGGGCTCC) (LTG core: CA, RTG core: CT)	2.3
AGGCGGTTCTGGGTTCTAACCTGTTGCTTAG [AGGCGGTCTAA_LTGcore_TC_RTGcore_CT] (site AGGCGGTCTAA) (LTG core: TC, RTG core: CT)	0
AGGCCTCTCTGGGTTCTAACCTGTTGCCTGA [AGGCCTCCTAG_LTGcore_TC_RTGcore_TC] (site AGGCCTCCTAG) (LTG core: TC, RTG core: TC)	0.047
GGCTCCCATTGGGTTCTAACCTGTTGCGGAT [GGCTCCCCTCC_LTGcore_AT_RTGcore_AT] (site GGCTCCCCTCC) (LTG core: AT, RTG core: AT)	0.138
GTCGCCCGCTGGGTTCTAACCTGTTGCTAAG [GTCGCCCCTTA_LTGcore_GC_RTGcore_CT] (site GTCGCCCCTTA) (LTG core: GC, RTG core: CT)	0.224
GTCGCCCCTTGGGTTCTAACCTGTTGCTAAA [GTCGCCCCTTA_LTGcore_CT_RTGcore_TT] (site GTCGCCCCTTA) (LTG core: CT, RTG core: TT)	0.194
AGGCGGGCATGGGTTCTAACCTGTTGCGGTG [AGGCGGGCTCC_LTGcore_CA_RTGcore_CA] (site AGGCGGGCTCC) (LTG core: CA, RTG core: CA)	0.776
CGGTCCCCATGGGTTCTAACCTGTTGCCAAG [CGGTCCCCTTG_LTGcore_CA_RTGcore_CT] (site CGGTCCCCTTG) (LTG core: CA, RTG core: CT)	0.51
GAGGCCTATTGGGTTCTAACCTGTTGCCAAG [GAGGCCTCTTG_LTGcore_AT_RTGcore_CT] (site GAGGCCTCTTG) (LTG core: AT, RTG core: CT)	0.196
CATATTACTTGGGTTCTAACCTGTTGCCTGC [CATATTACTAG_LTGcore_CT_RTGcore_GC] (site CATATTACTAG) (LTG core: CT, RTG core: GC)	0.0956
CGGTCCCCTTGGGTTCTAACCTGTTGCCAGT [CGGTCCCCTTG_LTGcore_CT_RTGcore_AC] (site CGGTCCCCTTG) (LTG core: CT, RTG core: AC)	0.258
CGGTCCCCTTGGGTTCTAACCTGTTGCCAGG [CGGTCCCCTTG_LTGcore_CT_RTGcore_CC] (site CGGTCCCCTTG) (LTG core: CT, RTG core: CC)	0.129
GAGGCCTGATGGGTTCTAACCTGTTGCCAAG [GAGGCCTCTTG_LTGcore_GA_RTGcore_CT] (site GAGGCCTCTTG) (LTG core: GA, RTG core: CT)	0.0459
GGTGCCCCATGGGTTCTAACCTGTTGCCGAG [GGTGCCCCTCG_LTGcore_CA_RTGcore_CT] (site GGTGCCCCTCG) (LTG core: CA, RTG core: CT)	0.158
ATGTCCCGTTGGGTTCTAACCTGTTGCTCAG [ATGTCCCCTGA_LTGcore_GT_RTGcore_CT] (site ATGTCCCCTGA) (LTG core: GT, RTG core: CT)	0.0848
CGAGCCCCATGGGTTCTAACCTGTTGCTGTG [CGAGCCCCTCA_LTGcore_CA_RTGcore_CA] (site CGAGCCCCTCA) (LTG core: CA, RTG core: CA)	0.111
TCGCGACTATGGGTTCTAACCTGTTGCCGTA [TCGCGACCTCG_LTGcore_TA_RTGcore_TA] (site TCGCGACCTCG) (LTG core: TA, RTG core: TA)	0.139
ATGCTTTACTGGGTTCTAACCTGTTGCCTGT [ATGCTTTCTAG_LTGcore_AC_RTGcore_AC] (site ATGCTTTCTAG) (LTG core: AC, RTG core: AC)	0.0458
